Measured values as given in US20070128217A1 (priority 2003, published 2007).

Experiments:
[1] = tested on: antibodies in sera from SARS patients (sera 1a, 1b, 2, 6, 37, 62, London, SARS-yellow, SARS-green); type: binding, human; design: Binding of serum 6 to linear peptides of protein X1 of SARS-CoV Urbani / Binding of serum 37 to linear peptides of protein X1 of SARS-CoV Urbani / Binding of serum 6 to looped/cyclic peptide (PEPSCAN-ELISA) / Binding of serum 37 to looped/cyclic peptide (PEPSCAN-ELISA) / Binding of serum 37 to looped/cyclic peptides of protein X1 of SARS-CoV Urbani / Binding of serum 6 to linear peptides of protein X2 / Binding of serum 37 to linear peptides of protein X2 / Binding of serum 37 to looped/cyclic peptides of protein X2 of SARS-CoV Urbani / Binding of serum 6 to linear peptides of protein M of SARS-CoV Urbani / Binding of serum 37 to linear peptides of protein M of SARS-CoV Urbani / Binding of serum 6 to looped/cyclic peptides of protein M of SARS-CoV Urbani / Binding of serum 37 to looped/cyclic peptides of protein M of SARS-CoV Urbani / Binding of serum 6 to linear peptides of protein X3 of SARS-CoV Urbani / Binding of serum 37 to linear peptides of protein X3 of SARS-CoV Urbani / Binding of serum 37 to looped/cyclic peptides of protein X3 of SARS-CoV Urbani / Binding of serum 6 to linear peptides of protein X4 of SARS-CoV Urbani / Binding of serum 37 to linear peptides of protein X4 of SARS-CoV Urbani / Binding of serum 37 to looped/cyclic peptides of protein X4 of SARS-CoV Urbani / Binding of serum 6 to linear peptides of protein X5 of SARS-CoV Urbani / Binding of serum 37 to linear peptides of protein X5 of SARS-CoV Urbani / Binding of serum 37 to looped/cyclic peptides of protein X5 of SARS-CoV Urbani / Binding of serum 6 to linear peptides of protein N of SARS-CoV Urbani / Binding of serum 37 to linear peptides of protein N of SARS-CoV Urbani / Binding of serum 6 to linear peptide (PEPSCAN-ELISA) / Binding of serum 1a to looped/cyclic peptides of protein N of SARS-CoV Urbani / Binding of serum 1b to looped/cyclic peptides of protein N of SARS-CoV Urbani / Binding of serum 2 to looped/cyclic peptides of protein N of SARS-CoV Urbani / Binding of serum 6 to looped/cyclic peptides of protein N of SARS-CoV Urbani / Binding of serum 37 to looped/cyclic peptides of protein N of SARS-CoV Urbani / Binding of serum 62 to looped/cyclic peptides of protein N of SARS-CoV Urbani / Binding of serum London to looped/cyclic peptides of protein N of SARS-CoV Urbani / Binding of serum SARS-green to looped/cyclic peptides of protein N of SARS-CoV Urbani: unit not given here
[2] = tested on: control sera (pooled serum of ten healthy LUMC hospital workers; commercial negative donor pooled serum from the Dutch bloodbank); type: binding, human; design: Binding of Control serum LUMC to linear peptides / Binding of Control serum Blood-bank to linear peptides / Binding of Control serum LUMC to looped peptides / Binding of Control Serum Blood-Bank to Looped peptides / Binding of Control serum LUMC to linear peptides of the protein M of SARS-CoV Urbani / Binding of Control serum Blood-bank to linear peptides of the protein M of SARS-CoV Urbani / Binding of Control serum LUMC to looped peptides of the protein M of SARS-CoV Urbani / Binding of Control Serum Blood-Bank to Looped peptides of the protein M of SARS-CoV Urbani: unit not given here
[3] = tested on: rabbit serum obtained by immunizing a rabbit with the SARS-CoV strain Frankfurt 1; type: binding; design: Binding of a rabbit serum to linear peptides / Binding of a rabbit serum to looped peptides / Rabbit serum linear peptides / Rabbit serum looped peptides / Binding of a rabbit serum to linear peptides of protein N of SARS-CoV Urbani (Rabbit serum linear peptides) / Binding of a rabbit serum to looped/cyclic peptides of protein N of SARS-CoV Urbani (Rabbit serum looped peptides): unit not given here

GTDSGFAAYNRYRIG
Binding of serum 1a to linear peptides of protein M of SARS-CoV Urbani [1]: 0.6 | Binding of serum 1a to looped/cyclic peptides of protein M of SARS-CoV Urbani [1]: 0.8 | Binding of serum 1b to linear peptides of protein M of SARS-CoV Urbani [1]: 0.4 | Binding of serum 1b to looped/cyclic peptides of protein M of SARS-CoV Urbani [1]: 0.5 | Binding of serum 2 to linear peptides of protein M of SARS-CoV Urbani [1]: 0.4 | Binding of serum 2 to looped/cyclic peptides of protein M of SARS-CoV Urbani [1]: 0.6 | Binding of serum 6 to linear peptides of protein M of SARS-CoV Urbani [1]: 0.7 | Binding of serum 6 to looped/cyclic peptides of protein M of SARS-CoV Urbani [1]: 0.8 | Binding of serum 37 to linear peptides of protein M of SARS-CoV Urbani [1]: 0.6 | Binding of serum 37 to looped/cyclic peptides of protein M of SARS-CoV Urbani [1]: 0.7 | Binding of serum 62 to linear peptides of protein M of SARS-CoV Urbani [1]: 0.5 | Binding of serum 62 to looped/cyclic peptides of protein M of SARS-CoV Urbani [1]: 0.6 | Binding of serum London to linear peptides of protein M of SARS-CoV Urbani [1]: 0.3 | Binding of serum London to looped/cyclic peptides of protein M of SARS-CoV Urbani [1]: 0.3 | Binding of serum SARS-green to linear peptides of protein M of SARS-CoV Urbani [1]: 0.4 | Binding of serum SARS-green to looped/cyclic peptides of protein M of SARS-CoV Urbani [1]: 0.4 | Binding of serum SARS-yellow to linear peptides of protein M of SARS-CoV Urbani [1]: 0.2 | Binding of serum SARS-yellow to looped/cyclic peptides of protein M of SARS-CoV Urbani [1]: 0.9 | Binding of Control Serum Blood-Bank to Looped peptides of the protein M of SARS-CoV Urbani [2]: 0.6 | Binding of Control serum Blood-bank to linear peptides of the protein M of SARS-CoV Urbani [2]: 0.7 | Binding of Control serum LUMC to linear peptides of the protein M of SARS-CoV Urbani [2]: 0.5 | Binding of Control serum LUMC to looped peptides of the protein M of SARS-CoV Urbani [2]: 0.7 | Rabbit serum linear peptides [3]: 0.2 | Rabbit serum looped peptides [3]: 0.4

ILLNVPLRGTIVTRP
Binding of serum 1a to linear peptides of protein M of SARS-CoV Urbani [1]: 0.6 | Binding of serum 1b to linear peptides of protein M of SARS-CoV Urbani [1]: 0.4 | Binding of serum 2 to linear peptides of protein M of SARS-CoV Urbani [1]: 0.4 | Binding of serum 6 to linear peptides of protein M of SARS-CoV Urbani [1]: 0.2 | Binding of serum 37 to linear peptides of protein M of SARS-CoV Urbani [1]: 0.4 | Binding of serum 62 to linear peptides of protein M of SARS-CoV Urbani [1]: 0.4 | Binding of serum London to linear peptides of protein M of SARS-CoV Urbani [1]: 0.3 | Binding of serum SARS-green to linear peptides of protein M of SARS-CoV Urbani [1]: 0.4 | Binding of serum SARS-yellow to linear peptides of protein M of SARS-CoV Urbani [1]: 0.2 | Recognition of the peptide by sera of SARS-CoV infected individuals, and form (linear, looped/cyclic) in which it is recognized [1]: recognized in looped/cyclic form | Binding of Control Serum Blood-Bank to Looped peptides of the protein M of SARS-CoV Urbani [2]: 0.5 | Binding of Control serum Blood-bank to linear peptides of the protein M of SARS-CoV Urbani [2]: 0.6 | Binding of Control serum LUMC to linear peptides of the protein M of SARS-CoV Urbani [2]: 0.4 | Binding of Control serum LUMC to looped peptides of the protein M of SARS-CoV Urbani [2]: 0.5 | Rabbit serum linear peptides [3]: 0.0 | Rabbit serum looped peptides [3]: 0.2

WNLDVIISSIVRQLF
Binding of serum 1a to linear peptides of protein X3 of SARS-CoV Urbani [1]: 0.7 | Binding of serum 1a to looped/cyclic peptides of protein X3 of SARS-CoV Urbani [1]: 0.5 | Binding of serum 1b to linear peptides of protein X3 of SARS-CoV Urbani [1]: 0.2 | Binding of serum 1b to looped/cyclic peptides of protein X3 of SARS-CoV Urbani [1]: 0.3 | Binding of serum 2 to linear peptides of protein X3 of SARS-CoV Urbani [1]: 0.4 | Binding of serum 2 to looped/cyclic peptides of protein X3 of SARS-CoV Urbani [1]: 0.4 | Binding of serum 6 to linear peptides of protein X3 of SARS-CoV Urbani [1]: 0.4 | Binding of serum 6 to looped/cyclic peptides of protein X3 of SARS-CoV Urbani [1]: 0.4 | Binding of serum 37 to linear peptides of protein X3 of SARS-CoV Urbani [1]: 0.6 | Binding of serum 37 to looped/cyclic peptides of protein X3 of SARS-CoV Urbani [1]: 0.4 | Binding of serum 62 to linear peptides of protein X3 of SARS-CoV Urbani [1]: 0.6 | Binding of serum 62 to looped/cyclic peptides of protein X3 of SARS-CoV Urbani [1]: 0.4 | Binding of serum London to linear peptides of protein X3 of SARS-CoV Urbani [1]: 0.5 | Binding of serum London to looped/cyclic peptides of protein X3 of SARS-CoV Urbani [1]: 0.2 | Binding of serum SARS-green to linear peptides of protein X3 of SARS-CoV Urbani [1]: 0.2 | Binding of serum SARS-green to looped/cyclic peptides of protein X3 of SARS-CoV Urbani [1]: 0.2 | Binding of serum SARS-yellow to linear peptides of protein X3 of SARS-CoV Urbani [1]: 0.2 | Binding of serum SARS-yellow to looped/cyclic peptides of protein X3 of SARS-CoV Urbani [1]: 0.5 | Binding of Control Serum Blood-Bank to Looped peptides of the protein X3 of SARS-CoV Urbani [2]: 0.8 | Binding of Control serum Blood-bank to linear peptides of the protein X3 of SARS-CoV Urbani [2]: 0.6 | Binding of Control serum LUMC to linear peptides of the protein X3 of SARS-CoV Urbani [2]: 0.3 | Binding of Control serum LUMC to looped peptides of the protein X3 of SARS-CoV Urbani [2]: 0.7 | Rabbit serum linear peptides [3]: 0.1 | Rabbit serum looped peptides [3]: 0.2

RSVSPKLFIRQEEVQ
Binding of serum 1a to linear peptides of protein X4 of SARS-CoV Urbani [1]: 0.7 | Binding of serum 1a to looped/cyclic peptides of protein X4 of SARS-CoV Urbani [1]: 0.6 | Binding of serum 1b to linear peptides of protein X4 of SARS-CoV Urbani [1]: 0.4 | Binding of serum 1b to looped/cyclic peptides of protein X4 of SARS-CoV Urbani [1]: 0.5 | Binding of serum 2 to linear peptides of protein X4 of SARS-CoV Urbani [1]: 0.4 | Binding of serum 2 to looped/cyclic peptides of protein X4 of SARS-CoV Urbani [1]: 0.5 | Binding of serum 6 to linear peptides of protein X4 of SARS-CoV Urbani [1]: 0.5 | Binding of serum 6 to looped/cyclic peptides of protein X4 of SARS-CoV Urbani [1]: 0.5 | Binding of serum 37 to linear peptides of protein X4 of SARS-CoV Urbani [1]: 0.6 | Binding of serum 37 to looped/cyclic peptides of protein X4 of SARS-CoV Urbani [1]: 0.7 | Binding of serum 62 to linear peptides of protein X4 of SARS-CoV Urbani [1]: 0.7 | Binding of serum 62 to looped/cyclic peptides of protein X4 of SARS-CoV Urbani [1]: 0.6 | Binding of serum London to linear peptides of protein X4 of SARS-CoV Urbani [1]: 0.6 | Binding of serum London to looped/cyclic peptides of protein X4 of SARS-CoV Urbani [1]: 0.3 | Binding of serum SARS-green to linear peptides of protein X4 of SARS-CoV Urbani [1]: 0.5 | Binding of serum SARS-green to looped/cyclic peptides of protein X4 of SARS-CoV Urbani [1]: 0.4 | Binding of serum SARS-yellow to linear peptides of protein X4 of SARS-CoV Urbani [1]: 0.2 | Binding of serum SARS-yellow to looped/cyclic peptides of protein X4 of SARS-CoV Urbani [1]: 0.5 | Binding of Control Serum Blood-Bank to Looped peptides [2]: 0.6 | Binding of Control serum Blood-bank to linear peptides [2]: 0.5 | Binding of Control serum LUMC to linear peptides [2]: 0.4 | Binding of Control serum LUMC to looped peptides [2]: 0.7 | Rabbit serum linear peptides [3]: 0.4 | Rabbit serum looped peptides [3]: 0.4

VRYNTRGNTYSTAWL
Binding of serum 1a to linear peptides of protein X5 of SARS-CoV Urbani [1]: 0.7 | Binding of serum 1a to looped/cyclic peptides of protein X5 of SARS-CoV Urbani [1]: 0.5 | Binding of serum 1b to linear peptides of protein X5 of SARS-CoV Urbani [1]: 0.4 | Binding of serum 1b to looped/cyclic peptides of protein X5 of SARS-CoV Urbani [1]: 0.3 | Binding of serum 2 to linear peptides of protein X5 of SARS-CoV Urbani [1]: 0.4 | Binding of serum 2 to looped/cyclic peptides of protein X5 of SARS-CoV Urbani [1]: 0.4 | Binding of serum 6 to linear peptides of protein X5 of SARS-CoV Urbani [1]: 0.7 | Binding of serum 6 to looped/cyclic peptides of protein X5 of SARS-CoV Urbani [1]: 0.3 | Binding of serum 37 to linear peptides of protein X5 of SARS-CoV Urbani [1]: 0.6 | Binding of serum 37 to looped/cyclic peptides of protein X5 of SARS-CoV Urbani [1]: 0.6 | Binding of serum 62 to linear peptides of protein X5 of SARS-CoV Urbani [1]: 0.7 | Binding of serum 62 to looped/cyclic peptides of protein X5 of SARS-CoV Urbani [1]: 0.4 | Binding of serum London to linear peptides of protein X5 of SARS-CoV Urbani [1]: 0.7 | Binding of serum London to looped/cyclic peptides of protein X5 of SARS-CoV Urbani [1]: 0.2 | Binding of serum SARS-green to linear peptides of protein X5 of SARS-CoV Urbani [1]: 0.4 | Binding of serum SARS-green to looped/cyclic peptides of protein X5 of SARS-CoV Urbani [1]: 0.6 | Binding of serum SARS-yellow to linear peptides of protein X5 of SARS-CoV Urbani [1]: 0.4 | Binding of serum SARS-yellow to looped/cyclic peptides of protein X5 of SARS-CoV Urbani [1]: 0.6 | Binding of Control Serum Blood-Bank to Looped peptides [2]: 0.3 | Binding of Control serum Blood-bank to linear peptides [2]: 0.9 | Binding of Control serum LUMC to linear peptides [2]: 0.5 | Binding of Control serum LUMC to looped peptides [2]: 0.5 | Rabbit serum linear peptides [3]: 0.7 | Rabbit serum looped peptides [3]: 1.2
